# Legend:
# C1498 cells = assay: Acute myeloid leukemia (AML) model, survival; type: in vivo, mice (C57BL/6); conditions: 50 μg i.v. day 0, 3, 6; FIG. 9
# Procedure: The ability of nanoparticle dsDNA delivery to inhibit leukemia was evaluated in a mouse model for acute myeloid leukemia (AML). The AML model was established by intravenously (i.v.) injecting C57BL/6 mice with 1×10^6 C1498 cells. (See Zhang et al., Blood 2009; 114 (8): 1545-1552 and Curran et al., 2016, Cell Reports 15, 2357-2366).
# (§1) Three days post-tumor cell injection, treatment (vehicle, DNA-LNP (10 μg), ADU-S100 (50 μg)) was provided by 100 μL i.v. administration given three times (day 0, 3, 6). Vehicle was made of 20% Glucose/PBS solution. LNP composition (in mole %) was Lipid 9, ˜50% (Lipid 9 is further described in Section I.A. supra and Sabnis et al., (2018) Molecular Therapy 26:6, 1509-1519); C14-PEG2000, ˜1.5%; cholesterol, ˜38.5%; and distearoylphosphatidylcholine (DSPC), ˜10%. ADU-S100 is a STING agonist (MedChemExpress).
# (§2) Serum was collected 4 hours after the first dose for cytokine/chemokine analyses. Mice (n=8) were observed daily for abnormalities and euthanized individually when the animal reached the humane endpoint.
# The ability of nanoparticle dsDNA delivery to inhibit leukemia was evaluated in the AML mouse model described in Example 5. Three days post-tumor cell injection, administration of vehicle, LNP (same amount of LNP as used in 5 μg DNA-LNP), DNA-LNP (1 μg), DNA-LNP (5 μg) was provided by 100 μL i.v. given three times (day 0, 3, 6). […]
# [1] = test system: serum cytokines/chemokines; assay: Serum cytokine levels 4 hours after dosing in the AML model; type: in vivo, mice (C57BL/6); conditions: 4 hours after first i.v. dose, 50 μg
# Procedure: as §1, §2
# Three days post-tumor cell injection, treatment (vehicle, DNA-LNP (5 μg), DNA-LNP2 (5 μg)) was provided by 100 μL i.v. administration given three times (day 0, 3, 6). Serum was collected 4 hours after the first dose for cytokine/chemokine analyses. Mice (n=8) were observed daily for abnormalities and euthanized individually when the animal reached the humane endpoint.
smiles,measurement,setting,value
Nc1ncnc2c1ncn2[C@@H]1O[C@@H]2COP(=O)([S-])O[C@@H]3[C@H](O)[C@@H](COP([O-])(=S)O[C@H]2[C@H]1O)O[C@H]3n1cnc2c(N)ncnc21.[Na+].[Na+] (stereo partly shown) [ADU-S100],survival in the AML model,C1498 cells,increased survival
same,"Serum level GRO alpha, Average",[1],134 pg/mL
same,"Serum level IFN alpha, Average",[1],1775 pg/mL
same,"Serum level IFN beta, Average",[1],2819 pg/mL
same,"Serum level IFN gamma, Average",[1],7 pg/mL
same,"Serum level IL-6, Average",[1],2617 pg/mL
same,"Serum level IL-18, Average",[1],150 pg/mL
same,"Serum level MCP-1, Average",[1],5571 pg/mL
same,"Serum level MIP-1 beta, Average",[1],640 pg/mL
same,"Serum level TNF alpha, Average",[1],732 pg/mL

# — patent US20250221932A1, “IMMUNE ENHANCEMENT OF CANCER TREATMENT” (Spark Therapeutics, Inc., priority 2022, published 2025)
